Results published in patent publication US20260109674A1, “ALLOSTERIC MODULATION OF MUSCARINIC ACETYLCHOLINE RECEPTOR EFFICACY” (The University of Toledo, priority 2022, published 2026).
Marks after values point to notes of the source that are not given here.

Tests used:
[1] = test system: wild-type zebrafish larvae; assay: Maximum tolerated concentration (MTC) determination in zebrafish larvae; assay type: in vivo, Danio rerio; conditions: after 24-hour exposure; Table 3
Procedure: Determination of maximum tolerated concentration was completed by placing 5 days post fertilization (dpf) wild-type zebrafish larvae in a 24 well plate at 6 fish per well, and one compound concentration per well. […] Death was determined by the absence of heartbeat. Additional endpoints were used to assess toxicity at non-lethal concentrations such as startle capacity (poke stimulus), abnormalities in swimming behavior (loss of dorsoventral balance), and gross morphological deformities (bent body). […] The MTC determination was used to select three doses of each compound (low, medium, high dose) to be used in behavioral assays.

[2] = target: T1, M1 muscarinic receptors expressed in CHO cells (Homo sapiens, UniProt P11229); assay: [3H]-arachidonic acid release screen with and without ACh and modulator; assay type: cell-based; conditions: for Modulation of ACh activity (in words): [3H]AA release; for Modulation of ACh activity (in words) / Intrinsic agonist activity (in words): modulator 10 μM; for Intrinsic agonist activity (in words): without ACh
T1 construct: expressed in transfected cells; host or cells: CHO (CHO-hM1, stably transfected)
T1 sequence (P11229 1-460): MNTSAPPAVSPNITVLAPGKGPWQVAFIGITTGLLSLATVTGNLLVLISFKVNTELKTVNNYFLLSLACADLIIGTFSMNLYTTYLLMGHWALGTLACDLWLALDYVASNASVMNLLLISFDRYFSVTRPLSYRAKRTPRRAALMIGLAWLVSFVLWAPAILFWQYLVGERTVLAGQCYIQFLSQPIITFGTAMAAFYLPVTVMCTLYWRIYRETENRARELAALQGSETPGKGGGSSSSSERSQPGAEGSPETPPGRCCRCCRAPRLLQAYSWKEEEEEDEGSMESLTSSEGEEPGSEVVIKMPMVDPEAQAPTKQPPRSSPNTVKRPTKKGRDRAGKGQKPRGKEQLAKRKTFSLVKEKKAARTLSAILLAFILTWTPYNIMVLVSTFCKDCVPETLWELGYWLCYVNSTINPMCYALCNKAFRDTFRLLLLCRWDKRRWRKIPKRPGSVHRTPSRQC
Procedure: CHO cells expressing human M1 muscarinic receptors were cultured at 37° C. in a 5% CO2 atmosphere in F12 medium supplemented with 5% fetal bovine serum, 100 units/mL penicillin, and 100 μg/mL streptomycin.
Measurement of [^3H]AA release was performed. Stably transfected CHO-hM1 or CHO-hM3 cells were seeded on 24-well plates (Greiner Bio-One GmbH, Frickenhausen, Germany) at a density of 5.0×10^4 cells/well in 0.5 ml of F-12 medium. Cells were incubated until they attached (approximately 3 h), followed by the addition of [^3H]AA to a final concentration of 0.05 μCi of [^3H]AA per well. The cells were then grown for 16 to 20 h before the assay was performed. [^3H]AA release was measured in Eagle's basal medium with 20 mM HEPES and 2 mg/ml fatty acid-free bovine serum albumin (EM-BSA). Cells were rinsed twice with EM-BSA, followed by the addition of EM-BSA media containing experimental agents and incubated for 1 h at 37° C. The assay was terminated by aspiration of the media, and the amount of [^3H]AA released was determined by liquid scintillation counting (Beckman-Coulter LS6500).
For some assays, pretreatment with phenoxybenzamine (POB) was employed, as indicated, to reduce the number of available receptors per cell. Stock POB was made up at 10 mM in ethanol and stored at −20° C. Each well was pretreated with 0.5 ml of the appropriate concentration in PBS with 1 mM CaCl2 and 1 mM MgCl2 (PBS++) for 30 min at 37° C., followed by 5 washes with PBS++. After pretreatment, the normal protocol was followed as above.
Tabulated [^3H]AA release data are represented as a fraction of maximal release in the presence of 100 μM ACh or as the fraction of release elicited by the appropriate concentration of ACh alone, as indicated dose-response curves were normalized to the maximal response of ACh without allosteric ligand. Some response curves were analyzed using the empirical four-parameter equation: […]
Disintegration per minute (DPM) values for a single compound were obtained in triplicate, and each compound was evaluated on three separate 24-well plates. The mean values for each condition from each of the three 24-well plates were used for the statistical analysis. The baseline mean was subtracted from each value, then normalized to the mean response produced by 100 μM ACh (set at 1.0). Statistical analyses were completed on the normalized values via one-way repeated measures ANOVA with Tukey's post hoc test. Statistically significant differences are noted as follows: *, p<0.05; **, p<0.01; ***, p<0.001.

[3] = test system: wild-type zebrafish larvae; assay: General locomotor assay in zebrafish larvae (locomotor activity, repetitive behaviors); assay type: in vivo, Danio rerio; conditions: Table 3; test concentration not given; N = 12
Procedure: Five days post fertilization (dpf) zebrafish larvae were exposed to a range of nonlethal concentrations of the compounds in a 24-well plate with appropriate controls. The movement of each larval zebrafish was monitored with the Noldus behavior recording system (Noldus Information Technology, Leesburg VA) and quantified using EthoVision® XT 15 software (Noldus Information Technology, Leesburg VA). The plate was immediately placed in the incubator for a 30-minute exposure period. After 30 minutes, the plate was transferred to the Noldus system and swimming behavior was recorded in 100% light for 30 minutes to measure spontaneous swimming behavior. The light was switched off for 10 minutes (dark period) and then switched on for 10 minutes (light period), which was then repeated for two additional cycles. In total, the larvae were exposed to three cycles of alternating 10-minute dark and light periods (100% darkness-to-100% light). […]
All data for exposure and the behavioral end points were analyzed by one-way ANOVA (factor: drug conc) followed by a Dunnett's multiple comparisons test for post hoc significance between drug concentration and control group. Statistically significant differences are noted as follows: *, p<0.05; **, p<0.01; ***, p<0.001.

[4] = 10 μM modulator, Table 4, N = 4-5

SMILES | Maximum Tolerated Concentration [1] [µM] | Ratio of response of ACh with modulator to response of ACh alone, 0.1 μM ACh ([2]; 10 μM modulator, Table 1) | Ratio of response of ACh with modulator to response of ACh alone, 100 μM ACh ([2]; 10 μM modulator, Table 1) | Stimulation of [3H]AA release, No ACh (fraction of stimulation above the control) ([2]; 10 μM modulator, Table 1) | other results
CCCCc1oc2ccccc2c1C(=O)c1cc(I)c(OCCN(CC)CC)c(I)c1 [Amiodarone, reference compound] | 10 |  |  |  | 
COc1ccc(Cn2cc(C(=O)O)c(=O)c3ccccc32)cc1 [BQCA, reference compound] |  | 2.34 ± 0.23 | 0.86 ± 0.03 | 0.37 ± 0.04 | Ratio of response of ACh with modulator to response of ACh alone, 0.1 μM ACh ([2]; 3 μM modulator, Table 1): 2.43 ± 0.19; Ratio of response of ACh with modulator to response of ACh alone, 100 μM ACh ([2]; 3 μM modulator, Table 1): 0.99 ± 0.02; Stimulation of [3H]AA release, No ACh (fraction of stimulation above the control) ([2]; 3 μM modulator, Table 1): 0.06 ± 0.06; Angular Velocity [3]: 141.8 ± 14.9* % of control; Total Distance Moved [3]: 72.0 ± 10.0* % of control; Variance of Turn Angle [3]: 119.6 ± 7.0* % of control
CCCCc1oc2ccccc2c1C(=O)c1cc(I)c(OCCNCC)c(I)c1.Cl [Compound 1, (2-butylbenzofuran-3-yl)(4-(2-(ethylamino)ethoxy)-3,5-diiodophenyl)methanone hydrochloride] | 3 | 0.75 ± 0.08 | 0.67 ± 0.02 | 0.22 ± 0.01 | Modulation of ACh activity (in words) [2]: weaker efficacy PAM relative to amiodarone
CCCCc1oc2ccccc2c1C(=O)c1cc(I)c(OCCN(CC)C(C)=O)c(I)c1 [Compound 5a, N-(2-(4-(2-butylbenzofuran-3-carbonyl)-2,6-diiodophenoxy)ethyl)-N-ethylacetamide] | 10 | 2.22 ± 0.26 | 1.58 ± 0.03 | 0.17 ± 0.04 | Increase of mAChR activity compared to treatment with ACh alone ([2]; 10 μM modulator): 70%; Intrinsic agonist activity (in words) [2]: significant intrinsic agonist activity
CCCCc1oc2ccccc2c1C(=O)c1cc(I)c(OCCN(CC)C(=O)c2ccccc2)c(I)c1 [Compound 5b, N-(2-(4-(2-butylbenzofuran-3-carbonyl)-2,6-diiodophenoxy)ethyl)-N-ethylbenzamide] | 10 | 1.34 ± 0.05 | 1.26 ± 0.05 | 0.02 ± 0.01 | Increase of mAChR activity compared to treatment with ACh alone ([2]; 10 μM modulator): 80%; Intrinsic agonist activity (in words) [2]: lacked intrinsic activity
CCCCc1oc2ccccc2c1C(=O)c1ccc(OC)cc1 [Compound 6a, (2-butylbenzofuran-3-yl)(4-methoxyphenyl)methanone] | 3 | 1.18 ± 0.06 | 1.03 ± 0.03 | 0.05 ± 0.01 | 
CCCCc1oc2ccccc2c1C(=O)c1cc(I)c(OC)c(I)c1 [Compound 6b, (2-butylbenzofuran-3-yl)(3,5-diiodo-4-methoxyphenyl)methanone] | 30 | 1.6 ± 0.07 | 1.32 ± 0.08 | 0.06 ± 0.01 | Modulation of ACh activity (in words) [2]: increased ACh activity
CCCCc1oc2ccccc2c1C(=O)c1ccc(OCCN(CC)CC)cc1 [Compound 6c, (2-butylbenzofuran-3-yl)(4-(2-(diethylamino)ethoxy)phenyl)methanone] | 3 | 0.46 ± 0.17 | 1.05 ± 0.05 | 0.05 ± 0.04 | Modulation of ACh activity (in words) [2]: decreased ACh activity
COc1ccc(CN2C(=O)C(=O)c3ccccc32)cc1I [Compound 8b, 1-(3-iodo-4-methoxybenzyl)indoline-2,3-dione] | 10 | 1.81 ± 0.04 | 1.24 ± 0.01 | 0.08 ± 0.01 | 
COc1ccc(CN2C(=O)C(=O)c3ccccc32)cc1Br [Compound 8d, 1-(3-bromo-4-methoxybenzyl)indoline-2,3-dione] | 100 | 1.31 ± 0.06 | 0.87 ± 0.01 | 0.04 ± 0.01 | 
COc1c(Cl)cc(CN2C(=O)C(=O)c3ccccc32)cc1Cl [Compound 8e, 1-(3,5-dichloro-4-methoxybenzyl)indoline-2,3-dione] | 100 | 2.13 ± 0.11 | 1.28 ± 0.07 | 0.08 ± 0.01 | 
COc1ccc(CN2C(=O)C(=O)c3ccccc32)cc1Cl [Compound 8f, 1-(3-chloro-4-methoxybenzyl)indoline-2,3-dione] | 10 | 1.49 ± 0.03 | 1.13 ± 0.04 | 0.08 ± 0.02 | 
COc1c(I)cc(Cn2cc(C(=O)O)c(=O)c3ccccc32)cc1I [GK-1-47] |  |  |  |  | Ratio of response of ACh with modulator to response of ACh alone, 0.1 μM ACh [2, 4]: 2.46 ± 0.13; Ratio of response of ACh with modulator to response of ACh alone, 100 μM ACh [2, 4]: 1.33 ± 0.04; Stimulation of [3H]AA release, No ACh (fraction of stimulation above the control) [2, 4]: 0.24 ± 0.01
O=C1C(=O)N(Cc2ccc(Br)cc2)c2ccccc21 [VU0119498, reference compound] |  | 1.22 ± 0.34 | 1.04 ± 0.07 | 0.07 ± 0.00 | 
